{"source": "patent US9024019B2", "about": "“Insecticidal triazinone derivatives” (Syngenta Participations AG, priority 2011, dated 2015)"}
{"smiles": "CC1(C)CC(C2=NNC(=O)N(/N=C/c3cccnc3)C2)=NO1", "melting point": "212 °C (dec.)"}
{"smiles": "CO/N=C/C1=NNC(=O)N(/N=C/c2cnccn2)C1", "melting point": "233 to 234 °C"}
{"smiles": "CC1(C)CC(C2=NNC(=O)N(/N=C/c3cncc(F)c3)C2)=NO1", "melting point": "260 °C (dec.)"}
{"smiles": "O=C1NN=C(C2=NOC(C(F)(F)F)(C(F)(F)F)C2)CN1/N=C/c1cncc(F)c1", "melting point": "290 °C (dec.)"}
{"smiles": "CO/N=C/C1=NNC(=O)N(/N=C/c2cncnc2)C1", "melting point": "244 to 245 °C"}
{"smiles": "CCO/N=C/C1=NNC(=O)N(/N=C/c2cccnc2)C1", "melting point": "233 to 234 °C"}
{"smiles": "CO/N=C/C1=NNC(=O)N(/N=C/c2ccc[n+]([O-])c2)C1", "melting point": "229 °C (dec.)"}
{"smiles": "O=C1NN=C(C2=NOC(C(F)(F)F)(C(F)(F)F)C2)CN1/N=C/c1cccnc1", "melting point": "270 °C (dec.)"}
{"smiles": "CO/N=C/C1=NNC(=O)N(/N=C/c2cncc(F)c2)C1", "melting point": "226 to 227 °C"}
{"smiles": "CO/N=C/C1=NNC(=O)N(/N=C/c2cccnc2)C1", "melting point": "237 to 238 °C"}
{"smiles": "CN(C)/N=C/C1=NNC(=O)N(/N=C/c2cccnc2)C1", "melting point": "229 °C (dec.)"}
{"smiles": "CO/N=C(\\C)C1=NNC(=O)N(/N=C/c2cccnc2)C1", "melting point": "230 to 231 °C"}
